In patent US20130052172A1, “METHODS FOR DIAGNOSING AND TREATING CARDIAC DEFECTS” (priority 2011, published 2013):
Entries after “also recorded” stand apart in the source; their conditions may differ. Positions of bridges follow the written chain, without caps; N, C: chain ends. Non-standard residues stand in square brackets, D forms with d. Residues, ends and D or L forms follow the SMILES beside them. *: point of attachment. Ileψ(thiazoline)Cys = CC[C@H](C)[C@H](N)C1=N[C@H](C(=O)*)CS1; dOrn = NCCC[C@@H](N)C(=O)O

Key:
[1] = test system: isolated hearts; assay: In vitro global ischemia/reperfusion of isolated perfused hearts, infarct size and recovery of LVDP; set-up: species or system rat; conditions: for effect of inhibitor alone on cardioprotection: inhibitor perfused prior to ischemia/reperfusion, no vancomycin
Protocol: (§1) For in vitro ischemia/reperfusion studies, hearts were perfused retrogradely, as described previously in Baker, J. et al. (Am. J. Physiol. Heart Circ. Physiol., 2000), the entirety of which is incorporated herein by reference. Briefly, hearts were perfused with modified Krebs-Henseleit buffer (120 mM NaCl, 25 mM NaHCO3, 4.7 mM KCl, 1.2 mM KH2PO4, 1.20 mM MgSO4, 11 mM glucose, and 1.8 mM CaCl2) bubbled with 95% O2-5% CO2 for a 40-minute stabilization period and subjected to 25 minutes of global no-flow ischemia, followed by 180 minutes of reperfusion. Before use, all perfusion fluids were filtered through cellulose acetate membranes with a pore size of 5.0 μm to remove particulate matter. Hearts were kept in temperature-controlled chambers to maintain myocardial temperature at 37° C. A balloon connected to a pressure transducer was inserted into the left ventricle to monitor cardiac function. For some experiments, hearts were stabilized for 25 minutes and then perfused with vancomycin or a mixture of antibiotics for 15 minutes before ischemia/reperfusion. During the initial 40 minute reperfusion period, recovery of mechanical function was measured as left ventricular developed pressure (LVDP) under steady-state conditions and expressed as a percentage of preischemic LVDP. At the end of the 3 hour reperfusion period, hearts were processed and stained with 2,3,5-triphenyltetrazolium chloride dye for IS determination.

[2] = test system: rats; assay: Myocardial ischemia/reperfusion by the protocol of example 3 (model not given); assay type: in vivo, rat; conditions: Dahl S rats, single antibiotic in drinking water (60 or 120 mg/kg/day)
Text: In the following example, methods for assaying myocardial infarction in vitro and in vivo in rats as determined by ischemia/reperfusion studies are described.
(§2) An anesthetized rat model was used for in vivo ischemia/reperfusion studies using the general surgical protocol and determination of infarct size (IS) described in “K(ATP) opener-induced delayed cardioprotection: involvement of sarcolemmal and mitochondrial K(ATP) channels, free radicals and MEK½” (Gross, E. et al., J. Mol. Cell. Cardiol. 35, 985-992, 2003), the entirety of which is incorporated herein by reference. Briefly, following anesthesia, a tracheotomy for artificial ventilation was performed, with the left common carotid artery cannulated for blood pressure and heart rate measurements. A thoracotomy was performed at the fifth intercostal space, the pericardium was excised, and a silk ligature was placed distal to the left atrial appendage that spanned to the sternal portion of the left ventricle, which included the left anterior descending coronary artery. Occlusion of the area described [area at risk (AAR)] was created by placing ends of the ligature through a polypropylene tube and fixing the snare to the epicardial surface with a hemostat. After 30 min, the hemostat was released to reperfuse the AAR. Following 2 h of reperfusion, the ligature was again occluded, and the AAR was determined by patent-blue negative staining. The heart was then excised, cross-sectioned into 4 to 5 slices, and separated into normal zone and AAR. Pieces were incubated in 1% 2,3,5-triphenyltetrazolium chloride to determine IS. The heart was then incubated overnight in 10% formaldehyde, and infarcted tissue was dissected from the AAR. IS was expressed as a percentage of the AAR (IS/AAR). Leptin (0.12 μg/kg) was administered intravenously as a bolus at 24 and 12 h before ischemia. Amino acids were administered intravenously as a bolus at 24 and 12 hours before ischemia or dissolved in the drinking water and given 48 hours before ischemia.
as §1

[3] = test system: rat heart; conditions: pharmacologic preconditioning (Baker 2007, 2008); cited from earlier work
[4] = test system: leptin; assay: Plasma cytokine analysis (leptin); assay type: in vivo, rat; conditions: Dahl S rats fed 15 ml/rat/d for 14 d, with or without leptin
Protocol: The concentration of cytokines in blood of rats treated with vancomycin was quantified to identify antibiotic-induced changes. […] Blood samples were kept on ice for 30 min and then centrifuged at 1000 g for 10 min at 4° C. to obtain plasma. Plasma samples were then analyzed to determine the concentration of 23 cytokines (Eve Technologies, Calgary, AB, Canada). Antibiotic was administered continuously via drinking water as described in example 1.

[5] = test system: Dahl S rats; assay: In vivo regional myocardial ischemia/reperfusion, infarct size (IS/AAR); set-up: species or system rat; conditions: vancomycin 15 mg/kg/day for 72 hours, thrombopoietin i.v. 15 minutes prior to ischemia
Text: as §2

Compound: N#C/C(=C/c1ccc(O)c(O)c1)C(=O)NCc1ccccc1 [AG-490]
- effect on ability of vancomycin to reduce myocardial necrosis and enhance ventricular function ([1]; JAK-2 inhibitor 1 μM perfused prior to ischemia/reperfusion, hearts of vancomycin-treated rats): partially abolished the ability of vancomycin to reduce myocardial necrosis and to enhance ventricular function
- effect of inhibitor alone on cardioprotection [1]: no effect on cardioprotection

Compound: COc1ccc(Cl)cc1C(=O)NCCc1ccc(S(=O)(=O)NC(=O)NC2CCCCC2)cc1 [Glibenclamide, glibenclamide]
- effect on ability of vancomycin to reduce myocardial necrosis and enhance ventricular function ([1]; KATP channel blocker 3 μM perfused prior to ischemia/reperfusion): abolished the ability of vancomycin to reduce myocardial necrosis and to enhance ventricular function
- effect of inhibitor alone on cardioprotection [1]: no effect on cardioprotection

Compound: COc1cccc(-c2cc(=O)c3ccccc3o2)c1N [PD98059]
- effect of inhibitor alone on cardioprotection [1]: no effect on cardioprotection
- effect on ability of vancomycin to reduce myocardial necrosis and enhance ventricular function ([1]; p42/44 MAPK inhibitor 10 μM perfused prior to ischemia/reperfusion): abrogated the ability of vancomycin to reduce myocardial necrosis and to enhance ventricular function

Compound: C[S+]([O-])c1ccc(-c2nc(-c3ccncc3)c(-c3ccc(F)cc3)[nH]2)cc1 (centres unmarked) [SB 203580]
- effect of inhibitor alone on cardioprotection [1]: no effect on cardioprotection
- effect on ability of vancomycin to reduce myocardial necrosis and enhance ventricular function ([1]; p38 MAPK inhibitor 15 μM perfused prior to ischemia/reperfusion): abolished the ability of vancomycin to reduce myocardial necrosis and to enhance ventricular function

Compound: CC[C@H](C)[C@H](N)C1=N[C@H](C(=O)N[C@@H](CC(C)C)C(=O)N[C@H](CCC(=O)O)C(=O)N[C@H](C(=O)N[C@H]2CCCCNC(=O)[C@H](CC(N)=O)NC(=O)[C@@H](CC(=O)O)NC(=O)[C@H](Cc3cnc[nH]3)NC(=O)[C@@H](Cc3ccccc3)NC(=O)[C@H]([C@@H](C)CC)NC(=O)[C@@H](CCCN)NC2=O)[C@@H](C)CC)CS1 [bacitracin] ({Ileψ(thiazoline)Cys}-L[dE]IK[dOrn]I[dF]H[dD]N; lactam 4-C)
- effect on myocardial infarct size [2]: did not induce protection

Compound: [H]/N=C(/N)N[C@H]1[C@H](O)[C@@H](O)[C@H](O[C@@H]2O[C@@H](C)[C@](O)(C=O)[C@H]2O[C@@H]2O[C@@H](CO)[C@H](O)[C@@H](O)[C@@H]2NC)[C@@H](N/C(N)=N\[H])[C@@H]1O [streptomycin]
- effect on myocardial infarct size [2]: reduce myocardial infarct size

Compound: erythropoietin: pharmacologic preconditioning agent, cited from Baker 2007 (darbepoetin alfa paper)
- reduction in IS [3]: 39%

Compound: leptin: 16-kDa, 167-aa polypeptide synthesized and secreted into the circulation primarily by white adipocytes
- effect on leptin levels in blood [4]: no effect on leptin levels
- effect on IS / myocardial infarction ([1]; Dahl S rats fed 15 ml/rat/d for 14 d, with or without leptin 0.12 μg/kg): no effect on IS
- effect of leptin in the absence of vancomycin pretreatment ([1]; leptin 0.12 μg/kg i.v. at 24 and 12 h before ischemia/reperfusion): had no effect
- effect on probiotic juice-induced cardioprotection ([1]; leptin 0.12 μg/kg i.v. at 24 and 12 h before ischemia/reperfusion, probiotic juice-fed rats): abolished probiotic juice-induced cardioprotection; also recorded: reversed
- effect on decrease in IS and increase in recovery of LVDP conferred by vancomycin ([1]; leptin 0.12 μg/kg i.v. at 24 and 12 h before ischemia/reperfusion, vancomycin-treated rats): abolished the decrease in IS and increase in recovery of LVDP conferred by vancomycin treatment; also recorded: reversed cardioprotection by vancomycin

Compound: neomycin
- effect on myocardial infarct size [2]: reduce myocardial infarct size

Compound: polymyxin B
- effect on myocardial infarct size [2]: did not induce protection

Compound: thrombopoietin: agent of classical pharmacologic preconditioning; human thrombopoietin (Baker 2008)
- decrease in infarct size [5]: 25%
- reduction in IS [3]: 34%
